What was measured:
[1] = discoloration / decomposition temperature (melting point measuring instrument); format: physicochemical; settings: definite melting points could not be determined
Description: 3. The definite melting points of the present compounds could not be determined in a melting point measuring instrument manufactured by Yanagimoto Co., Ltd. Their discoloration temperature ranges together with decomposition temperatures are as follows: […]

[2] = test system: Glucodextranase, i.e. exo-type dextranase; assay: enzymatic hydrolysis with glucodextranase (exo-type dextranase); format: biochemical; settings: 1% solution; FIG. 2
Description: 10. Glucodextranase, i.e. exo-type dextranase, was allowed to act on the present compounds (1% solution), but they were not hydrolyzed at all as shown in FIG. 2.

discoloration temperature ranges together with decomposition temperatures [1]	hydrolysis by glucodextranase [2]	SMILES
234-238 °C	–	O[C@@H]1[C@@H](O)[C@H]2OC[C@H]3O[C@H](OC[C@H]4O[C@H](OC[C@H]5O[C@H](OC[C@H]6O[C@H](OC[C@H]7O[C@H](OC[C@H]8O[C@H](OC[C@@H](O2)[C@H]1O)[C@H](O)[C@@H](O)[C@@H]8O)[C@H](O)[C@@H](O)[C@@H]7O)[C@H](O)[C@@H](O)[C@@H]6O)[C@H](O)[C@@H](O)[C@@H]5O)[C@H](O)[C@@H](O)[C@@H]4O)[C@H](O)[C@@H](O)[C@@H]3O [Cycloisomaltoheptaose, cycloisomaltoheptaose]
239-242 °C	–	O[C@@H]1[C@@H](O)[C@H]2OC[C@H]3O[C@H](OC[C@H]4O[C@H](OC[C@H]5O[C@H](OC[C@H]6O[C@H](OC[C@H]7O[C@H](OC[C@H]8O[C@H](OC[C@H]9O[C@H](OC[C@H]%10O[C@H](OC[C@@H](O2)[C@H]1O)[C@H](O)[C@@H](O)[C@@H]%10O)[C@H](O)[C@@H](O)[C@@H]9O)[C@H](O)[C@@H](O)[C@@H]8O)[C@H](O)[C@@H](O)[C@@H]7O)[C@H](O)[C@@H](O)[C@@H]6O)[C@H](O)[C@@H](O)[C@@H]5O)[C@H](O)[C@@H](O)[C@@H]4O)[C@H](O)[C@@H](O)[C@@H]3O [Cycloisomaltononaose, cycloisomaltononaose]
238-241 °C	–	O[C@@H]1[C@@H](O)[C@H]2OC[C@H]3O[C@H](OC[C@H]4O[C@H](OC[C@H]5O[C@H](OC[C@H]6O[C@H](OC[C@H]7O[C@H](OC[C@H]8O[C@H](OC[C@H]9O[C@H](OC[C@@H](O2)[C@H]1O)[C@H](O)[C@@H](O)[C@@H]9O)[C@H](O)[C@@H](O)[C@@H]8O)[C@H](O)[C@@H](O)[C@@H]7O)[C@H](O)[C@@H](O)[C@@H]6O)[C@H](O)[C@@H](O)[C@@H]5O)[C@H](O)[C@@H](O)[C@@H]4O)[C@H](O)[C@@H](O)[C@@H]3O [Cycloisomaltooctaose, cycloisomaltooctaose]
–	completely hydrolyzed	OC[C@H]1O[C@H](OC[C@H]2O[C@H](OC[C@H]3O[C@H](OC[C@H]4O[C@H](OC[C@H]5O[C@H](OC[C@H]6O[C@H](OC[C@H]7OC(O)[C@H](O)[C@@H](O)[C@@H]7O)[C@H](O)[C@@H](O)[C@@H]6O)[C@H](O)[C@@H](O)[C@@H]5O)[C@H](O)[C@@H](O)[C@@H]4O)[C@H](O)[C@@H](O)[C@@H]3O)[C@H](O)[C@@H](O)[C@@H]2O)[C@H](O)[C@@H](O)[C@@H]1O (some centres unmarked) [isomaltoheptaose]
–	completely hydrolyzed	OC[C@H]1O[C@H](OC[C@H]2O[C@H](OC[C@H]3O[C@H](OC[C@H]4O[C@H](OC[C@H]5O[C@H](OC[C@H]6OC(O)[C@H](O)[C@@H](O)[C@@H]6O)[C@H](O)[C@@H](O)[C@@H]5O)[C@H](O)[C@@H](O)[C@@H]4O)[C@H](O)[C@@H](O)[C@@H]3O)[C@H](O)[C@@H](O)[C@@H]2O)[C@H](O)[C@@H](O)[C@@H]1O (some centres unmarked) [isomaltohexaose]

— patent US5453369A, “Enzyme for producing novel cyclooisomaltooligosaccharides” (Kikkoman Corporation, priority 1992, dated 1995)
